Laboratory results reported in patent US10899754B2, “Modulators of indoleamine 2,3-dioxygenase” (GLAXOSMITHKLINE INTELLECTUAL PROPERTY DEVELOPMENT LIMITED, priority 2016, dated 2021).
Read-outs that look alike come from different tables or passages of the source.

Columns and labels:
[1] = system: human peripheral blood mononuclear cells (PBMC); assay: PBMC cytotoxicity assay (CellTiter-Glo); type: cell-based; conditions: 2 days, pCC50
In short: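 Human PBMC (50,000 cells/well) stimulated with IFN-γ 100 ng/ml and LPS 50 ng/ml were exposed to 11-point 3-fold compound dilutions for 2 days at 37 °C, 5% CO2. Viability read by CellTiter-Glo ATP luminescence and normalized to no-cell and stimulated-DMSO controls. XC50 derived by four-parameter fit.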

[2] = target: T1, ePL tagged IDO1 (Homo sapiens, UniProt P14902); assay: CETSA (Cellular Thermal Shifting assay) in Hela cells; type: binding; conditions: BacMam ePL tagged IDO1, 3 hours at 37° C., heated at 53° C. for 3 min
T1 construct: expressed in transfected cells; host or cells: HeLa cells transduced with BacMam virus
T1 sequence (P14902 whole entry): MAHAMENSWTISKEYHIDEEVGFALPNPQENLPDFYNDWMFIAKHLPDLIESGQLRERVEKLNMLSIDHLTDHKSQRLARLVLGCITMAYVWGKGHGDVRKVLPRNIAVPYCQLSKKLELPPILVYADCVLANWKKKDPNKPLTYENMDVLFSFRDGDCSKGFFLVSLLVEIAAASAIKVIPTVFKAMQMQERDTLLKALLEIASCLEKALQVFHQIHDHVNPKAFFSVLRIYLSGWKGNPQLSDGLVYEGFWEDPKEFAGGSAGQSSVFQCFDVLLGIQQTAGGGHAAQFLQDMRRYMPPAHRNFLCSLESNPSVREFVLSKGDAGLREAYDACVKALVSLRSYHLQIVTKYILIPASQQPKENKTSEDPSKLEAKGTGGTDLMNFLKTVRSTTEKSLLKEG
Description: Cellular Thermal Shifting assays were used to directly monitor the ligand binding to target proteins in cells. Hela cells were transduced with BacMam virus expressing ePL tagged IDO1 overnight. The cells were then plated over the compounds for 3 hours at 37° C. in cell culture medium containing 1% FBS. The plates were then sealed and heated at 53° C. for 3 min. InCell Hunter reagents were added and luminescence was read in 90 min.

[3] = target: T2, indoleamine 2, 3-dioxygenase (IDO1) (Homo sapiens, UniProt P14902); assay: IDO1 PBMC RapidFire MS assay (kynurenine detection by mass spectrometry); type: cell-based; set-up: to induce the expression of indoleamine 2, 3-dioxygenase (IDO1); host or cells: human PBMC stimulated with IFN-gamma and LPS; conditions: human PBMC stimulated with IFN-γ and LPS, 2 days; for IC50: pIC50, read-out: PBMC PXC50 (converted)
T2 sequence (P14902 whole entry): as above
In short: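 PBMCs (50,000 cells/well) stimulated with IFN-γ 100 ng/ml plus LPS 50 ng/ml, treated with 11-point 3-fold compound series for 2 days at 37° C. Supernatant kynurenine measured by RapidFire MS, normalised to internal standard; parallel cytotoxicity by CellTiter-Glo luminescence; curves fitted for XC50.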

[4] = system: naive CD4+CD25- T cells; conditions: co-culture with DCs; cited from earlier work
[5] = system: PAN02 pancreatic cells; conditions: orally dosed, cited from earlier work
[6] = system: human epithelial HeLa cells; assay: HeLa cytotoxicity assay (CellTiter-Glo); type: cell-based; conditions: pCC50
In short: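 HeLa cells (5,000/well) stimulated with 10 nM IFN-γ, exposed to 11-point 3-fold compound dilutions for 2 days at 37 °C; viability by CellTiter-Glo ATP luminescence. Normalized to cell-free (100% cytotoxicity) and stimulated-cell DMSO (0%) controls; four-parameter fit gives pCC50.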

[7] = target: T2, indoleamine 2, 3-dioxygenase (IDO1); assay: IDO1 HeLa RapidFire MS assay (kynurenine detection by mass spectrometry); type: cell-based; set-up: to induce the expression of indoleamine 2, 3-dioxygenase (IDO1); conditions: HeLa cells, pIC50, read-out: IDO1_HELA_PXC50 (converted)
In short: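 Compound potency reported as pIC50 from kynurenine/internal-standard ratio (RapidFire MS) in supernatant of IFN-γ-induced (10 nM) HeLa cells, 5,000 per well, after 2 days' treatment with 11-point dilutions. Cytotoxicity in the same format by luminescent ATP detection, reported as pCC50.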

Row | SMILES | PBMC TOX PXC50 [1] | EC50 ([2]; read-out: pXC50_1 (converted)) [nM] | IC50 [3] [nM] | HELA_IDO1_TOX_PXC50 [6] | IC50 [7] [nM] | further results
1 | CC(C)CC(=O)N1CCC(N(CC(C)C)c2ccc([C@H](C)CC(=O)O)cc2Nc2nc(C(F)(F)F)ns2)CC1 [Example 67, (R)-3-(4-(isobutyl(1-(3-methylbutanoyl)piperidin-4-yl)amino)-3-((3-(trifluoromethyl)-1,2,4-thiadiazol-5-yl)amino)phenyl)butanoic Acid] | <5 | 72.4 | 2 | – | – | EC50 ([2]; read-out: pXC50_2 (converted)): 50.1 nM
2 | CC(C)CN(CC(C)C)c1ccc(C2(CC(=O)O)CC2)cc1Nc1nc(C(F)(F)F)ns1 [Example 110, 2-(1-(4-(diisobutylamino)-3-((3-(trifluoromethyl)-1,2,4-thiadiazol-5-yl)amino)phenyl)cyclopropyl)acetic Acid] | 5.2 | – | – | – | – | pXC50_1 [2]: 6.89; pXC50_2 [2]: 6.86; PBMC PXC50 ([3]; pIC50): 8.5
3 | NS(=O)(=O)NCCNc1nonc1C(=NO)Nc1ccc(F)c(Br)c1 [INCB204360, epacadostat] | – | – | – | – | – | Conversion of naive CD4+CD25- T cells into CD4+FoxP3+ Tregs [4]: blocked the conversion; Inhibition of tumor growth ([5]; PAN02 pancreatic cells, immunocompetent mice): significant dose-dependent inhibition of tumor growth; Effect against tumor ([5]; same tumor (PAN02) implanted in immune-deficient mice): without effect
4 | CC(C)CN(c1ccc([C@H](C)CC(=O)O)cc1Nc1nc(C(F)(F)F)ns1)[C@H]1CC[C@H](O)CC1 [Example 44, (R)-3-(4-(((1r,4R)-4-hydroxycyclohexyl) (isobutyl)amino)-3-((3-(trifluoromethyl)-1,2,4-thiadiazol-5-yl)amino)phenyl)butanoic Acid] | <5 | 1.7 | 0.631 | – | – | –
5 | CC(C)CN(c1ccc([C@H](C)CC(=O)O)cc1Nc1ccc(C#N)cn1)C1CCOCC1 [Example 16, (R)-3-(3-((5-cyanopyridin-2-yl)amino)-4-(isobutyl(tetrahydro-2H-pyran-4-yl)amino)phenyl)butanoic Acid] | <5 | 257 | 1.58 | – | – | EC50 ([2]; read-out: pXC50_2 (converted)): 316 nM
6 | CC(C)CN(c1ccc([C@H](C)CC(=O)O)cc1Nc1ccc(Cl)nc1)C1CCOCC1 [Example 6, (R)-3-(3-((6-chloropyridin-3-yl)amino)-4-(isobutyl(tetrahydro-2H-pyran-4-yl)amino)phenyl)butanoic Acid] | <5 | 13.8 | 0.631 | – | – | EC50 ([2]; read-out: pXC50_2 (converted)): 20.9 nM
7 | CC(C)CN(c1ccc([C@H](C)CC(=O)O)cc1Nc1ccc(Cl)nn1)C1CCOCC1 [Example 11, (R)-3-(3-((6-chloropyridazin-3-yl)amino)-4-(isobutyl(tetrahydro-2H-pyran-4-yl)amino)phenyl)butanoic Acid] | <5 | 112 | 1 | – | – | EC50 ([2]; read-out: pXC50_2 (converted)): 191 nM
8 | CO[C@H]1CC[C@@H](N(CC(C)C)c2ccc([C@H](C)CC(=O)O)cc2Nc2nc(C(F)(F)F)n[nH]2)CC1 [Example 51] | <5 | 1.7 | 1.58 | – | – | –
9 | CC(C)CN(CC(C)C)c1ccc(C(C)CC(=O)O)cc1Nc1nnn[nH]1 (stereo not shown) [example 168, 3-{4-[bis(2-methylpropyl)amino]-3-[(1H-1,2,3,4-tetrazol-5-yl)amino]phenyl}butanoic acid] | <5 | – | > 10000 | <5 | > 10000 | –
10 | CC(C)CN(c1ccc(-c2ccccc2C(=O)NCCCCCN)cc1Nc1nc(C(F)(F)F)ns1)C1CCCCC1 [example 283, N-(5-aminopentyl)-4′-[cyclohexyl(2-methylpropyl)amino]-3′-{[3-(trifluoromethyl)-1,2,4-thiadiazol-5-yl]amino}-[1,1′-biphenyl]-2-carboxamide] | – | > 100000 | – | <5 | 5010 | –
11 | CC(C)CN(c1ccc([C@H](C)CC(=O)O)cc1Nc1ccc(Cl)nc1)C1CCCCC1 [Example 74, (R)-3-(3-((6-chloropyridin-3-yl)amino)-4-(cyclohexyl(isobutyl)amino)phenyl)butanoic Acid] | 6.5 | – | 0.794 | <5 | 3.98 | –
12 | CC(C)CN(c1ccc([C@H](C)CC(=O)O)cc1Nc1cccc(C(F)(F)F)n1)C1CCCCC1 [example 172, (3R)-3-{4-[cyclohexyl(2-methylpropyl)amino]-3-{[6-(trifluoromethyl)pyridin-2-yl]amino}phenyl}butanoic acid] | <5 | – | 39.8 | <5 | 79.4 | –
13 | COCCc1nnc(Nc2cc([C@H](C)CC(=O)O)ccc2N(CC(C)C)C2CCCCC2)[nH]1 [example 214, (3R)-3-{4-[cyclohexyl(2-methylpropyl)amino]-3-{[5-(2-methoxyethyl)-4H-1,2,4-triazol-3-yl]amino}phenyl}butanoic acid] | <5 | – | 12.6 | <5 | 12.6 | –
14 | Cc1nc(C)c(Nc2cc(C(C)CC(=O)O)ccc2N(CC(C)C)CC(C)C)s1 (stereo not shown) [example 139, 3-{4-[bis(2-methylpropyl)amino]-3-[(2,4-dimethyl-1,3-thiazol-5-yl)amino]phenyl}butanoic acid] | <5 | – | > 10000 | <5 | > 10000 | –
